The values below come from PMC6563140, “Azaphilones from the Marine Sponge-Derived Fungus Penicillium sclerotiorum OUCMDZ-3839” (Marine Drugs, 2019).

Experiment [1] addresses α-glycosidase. The experiment in a line: PNPG enzyme inhibition assay, reference inhibitor. Type of experiment: biochemical.
Experiment [2] addresses α-glycosidase. Briefly: PNPG enzyme inhibition assay. Type of experiment: biochemical.

Compound `C[C@H]1O[C@H](O[C@H]2[C@H](O)[C@@H](O)[C@@H](O[C@H]3[C@H](O)[C@@H](O)C(O)O[C@@H]3CO)O[C@@H]2CO)[C@H](O)[C@@H](O)[C@@H]1N[C@H]1C=C(CO)[C@@H](O)[C@H](O)[C@H]1O` (stereo partly drawn) [acarbose] returned an IC50 in experiment [1] of 1.1 mM. `CC[C@H](C)/C=C(C)/C=C/C1=CC2=C(Cl)C(=O)[C@]3(C)OC(=O)[C@@H](C(C)=O)[C@@H]3C2=CO1` [compound 11, isochromophilone I] displayed an IC50 in experiment [2] of 17.3 µM. That is a double-digit micromolar value. Same read-out and setting: the same measure for `CC[C@H](C)/C=C(C)/C=C/C1=CC2=C(Cl)C(=O)[C@](C)(OC(C)=O)C(=O)C2=CN1` [compound 14, scleratioramine]: 166 µM.

The term IC50 denotes the concentration needed to halve the response being measured.
